No end group written: not given here. *: point of attachment. Octanoyl = CCCCCCCC(=O)*
System: animals under medical treatment with physical conditions worsened by various diseases
Test: Example 2: single dose of ghrelin in animals under medical treatment for pathological conditions other than a surgery
Assay type: in vivo, canines and felines
Conditions: for Activity (vigor): animals improved/animals evaluated / Activity (vigor): response rate / Biochemical tests: animals improved/animals evaluated / Biochemical tests: response rate / Hematology tests: animals improved/animals evaluated / Hematology tests: response rate / Body temperature: animals improved/animals evaluated / Body temperature: response rate: single dose
Method: In these Examples, a canine-derived ghrelin (a peptide compound in which a side chain hydroxyl group of the serine residue at the 3rd position from the amino terminus is acylated with an n-octanoyl group in SEQ ID NO: 1) was used as ghrelin. The canine-derived ghrelin was chemically synthesized and then lyophilized, and a canine-derived ghrelin for administration containing 0.1, 0.3, 0.5, or 1 mg per vial of a canine-derived ghrelin was prepared.
To administer ghrelin to animals, the canine-derived ghrelin was dissolved to a concentration of 1 mg/2 mL in physiological saline and intravenously, subcutaneously, or intramuscularly injected after the dose was adjusted depending on the body weight.
Animals hospitalized in veterinary hospitals, particularly canines and felines, were used for treatment. These animals may or may not have undergone a surgery for treatment. The surgeries performed on the animals were pyometra surgery, surgical removal of a reproductive organ, surgical removal of mammary gland tumor, ovary cyst surgery, liver cell tumor surgery, disc hernia surgery, diaphragmatic hernia surgery, fracture surgery, gastrointestinal tract surgery, and urethroplasty.
Physical conditions in animals with various pathological conditions were examined by measuring parameters including activity (vigor), blood cell test values, biochemical test values, urinalysis, electrolyte tests, body weight, body temperature, the degree of anger or anxiety, respiratory rate, and the like to evaluate the effect of improving physical conditions in the animals. The effect was evaluated by comparing various evaluation parameters before and after administration.
The evaluation parameters used were activity (vigor), body temperature, hematology parameters (blood cell test values), serum biochemistry parameters (biochemical test values), the degree of anger or anxiety, and respiratory rate. […] The degree of anger or anxiety of an animal observed visually by an observer were also evaluated using the following criteria: 1. calm and accustomed to a health care professional, 2. able to be touched by but unaccustomed to a health care professional and restless, 3. wandering around or hiding in the kennel with anxiety, 4. able to be barely touched, and 5. too violent to be touched by a health care professional and tends to bite.
Ten animals had two or more diseases concurrently. The diseases including concurrent diseases were as follows: lower urological syndrome, urinary retention, infectious respiratory syndrome, chronic renal failure, osteoarthritis, chronic hepatitis, cystolithiasis, malnutrition, debility, jaundice, circulatory insufficiency, multiple organ failure, pulmonary edema, anemia, tabefaction, diarrhea, vomiting, wheezing, pyrexia, FIV, FELV infection, CPV infection, FVR, a liver disease, filariasis, hemobartonellosis, babesiosis, habu bite, anaphylaxis, a falling accident, rib fracture, and burn.
Of the animals with these diseases, the evaluation parameters recorded in medical records were as follows: activity (vigor) in 16 animals, biochemistry parameters (biochemical test values) in 11 animals, hematology parameters (blood cell test values) in three animals, and body temperature in one animal.

[1] = multiple organ failure, 1 animal
[2] = total, 18 animals with various diseases

GSS (n-octanoyl) FLSPEHQKLQQRKESKKPPAKLQPR (GSS(Octanoyl)FLSPEHQKLQQRKESKKPPAKLQPR; listed as Canis familiaris) [ghrelin, chemically synthesized, lyophilized]
Activity (vigor): animals improved/animals evaluated (accident etc., 3 animals): 3/3
Activity (vigor): response rate (accident etc., 3 animals): 100%
Biochemical tests: animals improved/animals evaluated (accident etc., 3 animals): 1/1
Biochemical tests: response rate (accident etc., 3 animals): 100%
Activity (vigor): animals improved/animals evaluated (anaphylaxis, 1 animal): 1/1
Activity (vigor): response rate (anaphylaxis, 1 animal): 100%
Biochemical tests: animals improved/animals evaluated (anaphylaxis, 1 animal): 1/1
Biochemical tests: response rate (anaphylaxis, 1 animal): 100%
Serum potassium (K) value after administration (animals in the Examples with decreased serum potassium after persistent poor physical conditions): improved
T-bil after administration (before administration 18.8 mg/dL): 4.9 mg/dL
Activity (vigor): animals improved/animals evaluated (debility, 1 animal): 1/1
Activity (vigor): response rate (debility, 1 animal): 100%
Biochemical tests: animals improved/animals evaluated (debility, 1 animal): 1/1
Biochemical tests: response rate (debility, 1 animal): 100%
NH3 after administration (example, before administration 207 μg/dL): 302 µg/dL
Cre after administration (example, before administration 3.2 mg/dL): 1.3 mg/dL
BUN after administration (example, before administration 72.5 mg/dL): 15.4 mg/dL
Body temperature after administration (example, before administration 40.2° C.): 37.8 °C
White blood cell count after administration (example, before administration 278×10^2/μL): 16700 µL⁻¹
ALP after administration (example, before administration 643 IU/L): 291 IU/L
GPT after administration (example, before administration 670 IU/L): 260 IU/L
CPK after administration (example, before administration 1166 IU/L): 64 IU/L
GOT after administration (example, before administration >1000 IU/L): 187 IU/L
Activity (vigor) score after administration (example, before administration a score of 1 (unable to move), scale 1-7): 3
Activity (vigor): animals improved/animals evaluated (infection, 8 animals): 6/6
Activity (vigor): response rate (infection, 8 animals): 100%
Biochemical tests: animals improved/animals evaluated (infection, 8 animals): 6/6
Biochemical tests: response rate (infection, 8 animals): 100%
Hematology tests: animals improved/animals evaluated (infection, 8 animals): 1/1
Hematology tests: response rate (infection, 8 animals): 100%
Activity (vigor): animals improved/animals evaluated (liver disease, 1 animal): 1/1
Activity (vigor): response rate (liver disease, 1 animal): 100%
Body temperature: animals improved/animals evaluated (liver disease, 1 animal): 1/1
Body temperature: response rate (liver disease, 1 animal): 100%
Activity (vigor): animals improved/animals evaluated [1]: 1/1
Activity (vigor): response rate [1]: 100%
Activity (vigor): animals improved/animals evaluated (renal dysfunction, 3 animals): 3/3
Activity (vigor): response rate (renal dysfunction, 3 animals): 100%
Biochemical tests: animals improved/animals evaluated (renal dysfunction, 3 animals): 1/1
Biochemical tests: response rate (renal dysfunction, 3 animals): 100%
Hematology tests: animals improved/animals evaluated (renal dysfunction, 3 animals): 2/2
Hematology tests: response rate (renal dysfunction, 3 animals): 100%
Activity (vigor): animals improved/animals evaluated [2]: 16/16
Activity (vigor): response rate [2]: 100%
Biochemical tests: animals improved/animals evaluated [2]: 11/11
Biochemical tests: response rate [2]: 100%
Body temperature: animals improved/animals evaluated [2]: 1/1
Body temperature: response rate [2]: 100%
Hematology tests: animals improved/animals evaluated [2]: 3/3
Hematology tests: response rate [2]: 100%
